This is an account of results in paper PMC11714206, “Massively Parallel Screening of Toll/Interleukin‐1 Receptor (TIR)‐Derived Peptides Reveals Multiple Toll‐Like Receptors (TLRs)‐Targeting Immunomodulatory Peptides” (Advanced Science, 2024).

The target of this experiment is T1, MyD88^TIR (Homo sapiens, UniProt Q99836).
T1 construct: MyD88 (residues 148–296); 6xHis; made in house; host or cells: E. coli BL21 (DE3)
Briefly: T‐Surf phage library (P8 and P3) selection against MyD88^TIR, four rounds, NGS read counts. The class given is binding. As to conditions: for Population: 4th round of selection against MyD88 TIR, share of NGS reads; for P3_MyD88 Rank (after) / P3_MyD88 Rank (before): P3 library; for P8_MyD88 Rank (after) / P8_MyD88 Rank (before): P8 library. In short, it runs like this:
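Read counts come from NGS of phage pools after the fourth selection round, barcoded by 20-cycle PCR and filtered for quality ≥30. Each round: phage incubated 1 h at RT on immobilised TIR protein (5 µg mL^−1, BSA-blocked), washed, HCl-eluted and amplified in E. coli TG1.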

The mark [1] stands for this setting: P8_MyD88: rank by NGS read count after grouping.
Setting [2] is: P8_MyD88: rank by NGS read count before grouping.
Setting [3] is: P3_MyD88: rank by count after grouping.
The mark [4] stands for this setting: P3_MyD88: rank by count before grouping.
Setting [5] is: P8_MyD88 pool: P8 T-Surf phage library.
[6] abbreviates: P8_MyD88: rank by count after grouping.
Setting [7] is: P8_MyD88: rank by count before grouping.
[8] abbreviates: 4R selection against MyD88, rank after grouping.
[9] abbreviates: 4R selection against MyD88, rank before grouping.
[10] abbreviates: selection against MyD88, rank after grouping.
Where [11] appears, read: selection against MyD88, rank before grouping.
The mark [12] stands for this setting: P3_MyD88 pool: P3 T-Surf phage library.
[13] abbreviates: selection against MyD88 TIR, rank by count after grouping.
Where [14] appears, read: selection against MyD88 TIR, rank by count before grouping.
Where [15] appears, read: selection against MyD88, rank by count after grouping.
Where [16] appears, read: selection against MyD88, rank by count before grouping.

T1 sequence (Q99836 148-296): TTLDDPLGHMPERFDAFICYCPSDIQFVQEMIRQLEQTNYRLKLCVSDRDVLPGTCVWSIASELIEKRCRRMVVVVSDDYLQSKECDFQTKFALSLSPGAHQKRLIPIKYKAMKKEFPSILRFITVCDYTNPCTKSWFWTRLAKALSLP

With DPQDLVWFYERPVSIF, the “Rank (after)” value under setting [1] was determined as 909. Besides, the “Rank (before)” value under setting [2] is 2712.
As for ESILNHMRRSSQSIAN, under setting [3], the “Rank (after)” value was 481. Moreover, under setting [4], the “Rank (before)” value is given as 2231.
LGYHWIDWEYFV had a Population under setting [5] of 0.0274%.
For LGYHWIVWEYFVGIDD, the “Rank (after)” value under setting [6] is recorded as 421. Besides, the “Rank (before)” value under setting [7] is 3244.
For SSFREGPWRLLELSKN, under setting [8], the “P3_MyD88 Rank (after)” value stood at 609. Moreover, the “P3_MyD88 Rank (before)” value under setting [9] came out at 3217.
Regarding IQCRNATSPAALLIGR, the “P8_MyD88 Rank (after)” value under setting [8] came out at 651. In addition, the “P8_MyD88 Rank (before)” value under setting [9] was 3652.
MVGGDTFHDFLDIISM: under setting [8], the “P8_MyD88 Rank (after)” value is 655. Moreover, the “P8_MyD88 Rank (before)” value under setting [9] was 3677.
Regarding LVYHWIDWEYFVGIED, the Population under setting [5] is 0.0108%.
Regarding NQWRSSPTAWASLSFA, the “P3_MyD88 Rank (after)” value under setting [10] turned out to be 530. Further, the “P3_MyD88 Rank (before)” value under setting [11] came to 3474.
Consider WALDELLQLQHARELF, for which, under setting [10], the “P8_MyD88 Rank (after)” value worked out at 561. Further, under setting [11], the “P8_MyD88 Rank (before)” value was determined as 1431.
For MFGGATLHDVLELISM the same measures were 509 and 3654.
For the sequence WDFASNMAQVWERLYY, the “Rank (after)” value under setting [1] came to 890. Also, the “Rank (before)” value under setting [2] is recorded as 1596.
For DWGWDYLLPQLEGSAG the same measures were 990 and 2482.
Regarding DHHLDLPRGKSFKPEILG, the “Rank (after)” value under setting [3] is given as 451. Further, under setting [4], the “Rank (before)” value was determined as 1996.
Take LKVESWRQALKERLP: under setting [12], the Population came to 0.00378%.
For the sequence YASYDDNDYYWVTHVLLRPM, the “Rank (after)” value under setting [6] came out at 139. Besides, the “Rank (before)” value under setting [7] is on record as 255.
Taken in the same sequence, the figures for DPQNLQWFYERLVILI were 392 and 3031.
In the case of YTALPNSGFHTFRDNN, the “P3_MyD88 Rank (after)” value under setting [13] worked out at 257. Under setting [14], the “P3_MyD88 Rank (before)” value was found to be 1636.
In turn, DPQDLVWFYERLVSLF registered a Population under setting [5] of 0.00886%.
As to YHPLDLPRGKAIKPEILG, the “Rank (after)” value under setting [3] is recorded as 189. The “Rank (before)” value under setting [4] is 1615.
Regarding KARQFGALREEKLRAA, the “Rank (after)” value under setting [3] worked out at 425. The “Rank (before)” value under setting [4] turned out to be 3599.
In the case of YNLISHLYDAMHRNRI, the “P3_MyD88 Rank (after)” value under setting [10] is on record as 549. The “P3_MyD88 Rank (before)” value under setting [11] is reported as 1746.
As to NFANSSWALDELWLIL, under setting [6], the “Rank (after)” value came out at 132. Further, the “Rank (before)” value under setting [7] came out at 145. The Population under setting [5] was 0.0116%.
Consider YYLDTSHHRKQSGEFG, for which the “P3_MyD88 Rank (after)” value under setting [13] is on record as 246. For the same sequence, the “P3_MyD88 Rank (before)” value under setting [14] turned out to be 1438.
For the sequence WAQDALLKILYAKETM, under setting [8], the “P8_MyD88 Rank (after)” value was 614. Moreover, the “P8_MyD88 Rank (before)” value under setting [9] is given as 1562.
Take LGYQWIAGEYFVGIED: the “Rank (after)” value under setting [1] stood at 1021. Moreover, under setting [2], the “Rank (before)” value is given as 3320.
NELVHVWSSKANSLVGQ: the “Rank (after)” value under setting [3] is given as 186. The “Rank (before)” value under setting [4] came out at 1250.
With PQDQEWFYERMVSLIL, the “P8_MyD88 Rank (after)” value under setting [10] came out at 517. In addition, the “P8_MyD88 Rank (before)” value under setting [11] is reported as 3491.
In turn, WALDELLKILDAKETM had a Population under setting [5] of 0.0116%.
As to NYADSSWALDELLAIM, the “Rank (after)” value under setting [6] is 164. Moreover, under setting [7], the “Rank (before)” value is recorded as 184. In addition, under setting [5], the Population is 0.00732%.
Regarding LAANEIRKEMKTLATI, under setting [15], the “P3_MyD88 Rank (after)” value was determined as 680. In addition, under setting [16], the “P3_MyD88 Rank (before)” value is reported as 2326.
Take SSFREGLSRLPELSKK: under setting [8], the “P3_MyD88 Rank (after)” value is listed as 589. For the same sequence, under setting [9], the “P3_MyD88 Rank (before)” value came out at 3207.
DPQDLELFYEQLVRPF: the “Rank (after)” value under setting [6] amounted to 459. In addition, the “Rank (before)” value under setting [7] worked out at 2844.
Consider DWVLGYRLPNLEGPAG, for which, under setting [15], the “P8_MyD88 Rank (after)” value amounted to 741. For the same sequence, under setting [16], the “P8_MyD88 Rank (before)” value turned out to be 2395.
With RFWERLRYMIPEVSHQ, the “P3_MyD88 Rank (after)” value under setting [8] amounted to 598. Under setting [9], the “P3_MyD88 Rank (before)” value worked out at 2545.
In the case of YAFTCHLHRYLVQRCV, the “P3_MyD88 Rank (after)” value under setting [15] was found to be 692. The “P3_MyD88 Rank (before)” value under setting [16] is on record as 1481.
For the sequence MFGGDTFMIFWILLA, the “P8_MyD88 Rank (after)” value under setting [8] was determined as 593. Moreover, the “P8_MyD88 Rank (before)” value under setting [9] amounted to 3670.
Take EPPGLDWVYERLVVLF: the “Rank (after)” value under setting [1] is 927. Further, under setting [2], the “Rank (before)” value is 3199.
As for YPQELVLFYELLGSLV, the “P8_MyD88 Rank (after)” value under setting [15] is given as 699. Besides, under setting [16], the “P8_MyD88 Rank (before)” value was determined as 2101.
Regarding WDFASNMEQFWDRLIRMIE, under setting [10], the “P8_MyD88 Rank (after)” value came out at 529. The “P8_MyD88 Rank (before)” value under setting [11] stood at 1611.
NNFSAFLFEALFENGI: the “Rank (after)” value under setting [6] is listed as 181. In addition, the “Rank (before)” value under setting [7] is listed as 240.
For the sequence NQWLNSLTAPANPSDW, the “Rank (after)” value under setting [3] is on record as 396. Under setting [4], the “Rank (before)” value amounted to 3469.
With DHHMDLTRGKAIKPEILG, the “P3_MyD88 Rank (after)” value under setting [8] is 616. The “P3_MyD88 Rank (before)” value under setting [9] came to 2061.
In the case of VQWDDSWFWEKLLYA, the “Rank (after)” value under setting [1] amounted to 1018. In addition, under setting [2], the “Rank (before)” value turned out to be 2248.
As to ELDFSHFWLFDGQAT, under setting [13], the “P8_MyD88 Rank (after)” value is given as 218. The “P8_MyD88 Rank (before)” value under setting [14] came to 358.
Consider SSCREGLWSLLELSKK, for which, under setting [10], the “P3_MyD88 Rank (after)” value was determined as 565. Also, the “P3_MyD88 Rank (before)” value under setting [11] is listed as 3262.
As for SRLCVMCWKNCVLPN, the “P3_MyD88 Rank (after)” value under setting [8] turned out to be 624. The “P3_MyD88 Rank (before)” value under setting [9] came to 3279.
Turning to YTALTNSRLHNFRDND, under setting [15], the “P3_MyD88 Rank (after)” value came out at 696. For the same sequence, under setting [16], the “P3_MyD88 Rank (before)” value was 1707.
As to AVEKETDKIQTPPKNA, the “Rank (after)” value under setting [3] is on record as 173. Also, under setting [4], the “Rank (before)” value was found to be 1939.
As for WALDELLRILY, the Population under setting [5] stood at 0.01%.
As to WVFQTLYSTLEDEYAF, under setting [13], the “P8_MyD88 Rank (after)” value is on record as 228. The “P8_MyD88 Rank (before)” value under setting [14] is recorded as 372.
Regarding YNFISHLYDALRLNKIETF, the “P3_MyD88 Rank (after)” value under setting [13] was 271. The “P3_MyD88 Rank (before)” value under setting [14] was found to be 896.
Regarding AFSHWALVELLEAIEQ, the “P8_MyD88 Rank (after)” value under setting [13] is reported as 226. In addition, the “P8_MyD88 Rank (before)” value under setting [14] is 385.
Turning to RSFRKGLWRLLELSNK, the “Rank (after)” value under setting [3] turned out to be 431. Also, the “Rank (before)” value under setting [4] came out at 2695.
Regarding DPQVRDWFYERAVSLF, the “Rank (after)” value under setting [6] is recorded as 452. The “Rank (before)” value under setting [7] is 2660.
As to NQWRNALTKVASL, the Population under setting [12] worked out at 0.00378%.
Consider DPQDLDWFYERRVCLF, for which the “P8_MyD88 Rank (after)” value under setting [15] came out at 733. For the same sequence, the “P8_MyD88 Rank (before)” value under setting [16] was found to be 2791.
Take YTELTSSGFHTFRDND: under setting [13], the “P3_MyD88 Rank (after)” value is listed as 198. In addition, the “P3_MyD88 Rank (before)” value under setting [14] was 1713.
In the case of SSFREGLWCLRELSKK, under setting [3], the “Rank (after)” value worked out at 394. For the same sequence, under setting [4], the “Rank (before)” value was 3156.
For DPQYRDWFYERLVSLP, the “P8_MyD88 Rank (after)” value under setting [10] was 512. Besides, under setting [11], the “P8_MyD88 Rank (before)” value worked out at 2642.
Regarding DPQERGCQYQRLVGML, the “Rank (after)” value under setting [1] is recorded as 902. Moreover, the “Rank (before)” value under setting [2] is given as 3019.
Regarding LQNQWKLALNKVANLP, the “Rank (after)” value under setting [3] is on record as 417. Moreover, under setting [4], the “Rank (before)” value is 2361.
For the sequence YLLLGVFQTIFARRTA, the “P8_MyD88 Rank (after)” value under setting [13] is 276. Besides, the “P8_MyD88 Rank (before)” value under setting [14] is on record as 1965.
Regarding TSHLHHAPRPNEIETL, the “P3_MyD88 Rank (after)” value under setting [8] is listed as 653. Moreover, under setting [9], the “P3_MyD88 Rank (before)” value is reported as 3323.
As to LVAHEITPSLFKAIKE, the “Rank (after)” value under setting [3] is on record as 161. Besides, the “Rank (before)” value under setting [4] worked out at 676.
